Measured values published in patent publication US20060270742A1, “Compositions and methods for the treatment of neurodegenerative diseases” (priority 2005, published 2006).

How the values were obtained:
[1] = test system: SMN protein; assay: SMN cytoblot assay in SMA patient fibroblasts; type: cell-based, human; conditions: for SMN protein levels: SMA patient fibroblasts, cytoblot; for SMN per viable cell (normalized hit): SMN cytoblot relative to cell number estimated by Alamar blue
Experimental: One method for monitoring SMN protein levels in cells is through use of a cytoblot assay, in which cells are fixed and probed with an antibody against a target protein of interest.
Using the cytoblot assay, we can clearly distinguish SMN protein levels in patient (GM03813) versus carrier fibroblast cells (GM03814).
The SMN cytoblot protocol is described below.
• 1. Plate 50 μl per well of 300,000 cells/ml (15,000 cells per well) into Nunc white 384-well opaque-bottomed plates. • 2. Incubate plates at 37° C., 5% CO2 overnight. Day 2 • 1. Aspirate media from wells using Tecan plate washer. • 2. Fix cells by adding 20 μl/well of cold methanol (kept in −20° C. freezer). • 3. Incubate plates in 4° C. refrigerator for 10 minutes. • 4. Aspirate methanol using Tecan plate washer. • 5. Add 50 μl/well of primary Ab solution, (BD anti-SMN Ab diluted to 125 ng/ml in 10% fetal goat serum PBST), using multi-drop. • 6. Seal plates and incubate overnight at room temperature. Day 3 • 1. After 16-20 hrs incubation, wash plates with PBST 2× using Tecan plate washer. • 2. Add 50 μl of secondary Ab solution, (Santa Cruz goat anti-Mouse-HRP diluted to 67 ng/ml in 10% fetal goat serum PBST). • 3. Seal plates and incubate 2 hrs at room temperature. • 4. Wash plates with PBST 2× using Tecan plate washer. • 5. Add 50 μl/well 10% fetal goat serum PBST. • 6. Incubate in 4° C. refrigerator for 10 minutes. • 7. Aspirate plates using plate washer and add ECL luminescence solution, 20 μl/well. • 8. Measure luminescence on plate reader. Automated Scoring
We scored each compound based on the maximum signal-to-noise ratio (SNR) found among its dose curves. These scores are based on edge-corrected SMN data, using only plates that passed quality control. The untreated level on each plate was found by taking the median of the untreated wells, and for each treated well we calculated a log(T/U) ratio. Each curve was generated in triplicate on each plate, so each point on a compound's dose curve was obtained by determining the median for the replicate points. Each ratio thus has an error estimate from the scatter between the triplicate data points (1.5 times the median absolute deviation from the median). For each dose curve, we calculated the SNR for each data point log(T/U)/error, and chose the maximum point as our indicator of SMN induction activity. Since this is a signal-to-noise score, scores much greater than one indicate significant activity, assuming normal statistics. We decided to use a cutoff signal-to-noise ratio of 6. This selection represents a considerable enrichment towards visually-selected compounds. We identified 100 out of 2000 compounds producing scores>6. This included 13 of the 28 visual selections.
• 1. […] Type 3 reversal of curve hits […]

[2] = test system: SMN protein; assay: Western blot of SMN protein in treated cells; type: cell-based, human; conditions: 72 hours treatment, densitometry, fold change relative to vehicle (DMSO)
Experimental: Effects on SMN protein levels were also confirmed by western blots. Cells were treated with compound or vehicle for 72 hours. Cell lysates were prepared and analyzed by western blot. SMN protein levels were quantified by densitometry and normalized to an internal control protein (GAPdH or EIF4e) (FIGS. 4-6). The SMN/control ratios shown in FIGS. 4-6 depict the fold change relative to vehicle (DMSO) control.

Row | Compound | SMN protein levels [1] | SMN per viable cell (normalized hit) [1] | SMN protein relative to control proteins GAPdH and eIF4E [2]
1 | CC12CC3CC(C)(C1)CC(N)(C3)C2 [memantine, 1-amino-3,5-dimethyl adamantane] | increase SMN protein levels | normalized hits | increases in SMN protein
2 | NC12CC3CC(CC(C3)C1)C2 [amantadine] | increase SMN protein levels | normalized hits | –
